± gives the standard deviation of the averaged measurements.
What was measured:
Assay in all cases: relative cell number vs DMSO control (72 h) (% of DMSO); higher = less growth inhibition (more cells)
Settings in all cases: sgRNA knockout: sgNT
[1] = tested on: BT-20
Method: (§1)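 QMAP-Seq: a pool of 5 breast cancer cell lines (ZR-75-1, SKBR3, HCC-38, MDA-MB-231, BT-20), each carrying 12 doxycycline-inducible Cas9 sgRNA perturbations (11 knockouts plus non-targeting sgNT), was treated with compounds for 72 h at four 10-fold doses (10 nM-10 uM or 1 nM-1 uM range). Barcodes were amplified and sequenced, and cell number was interpolated from 293T spike-in standard curves. The result is expressed as % of the median of DMSO wells. Two biological replicates.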

[2] = tested on: HCC-38
Method: as §1

[3] = tested on: MDA-MB-231
Method: as §1

[4] = tested on: SKBR3
Method: as §1

[5] = tested on: ZR-75-1
Method: as §1

Compound | relative cell number ([1]; 10 nM) | relative cell number ([1]; 100 nM) | relative cell number ([1]; 1000 nM) | relative cell number ([1]; 10000 nM) | relative cell number ([2]; 10 nM) | relative cell number ([2]; 100 nM) | relative cell number ([2]; 1000 nM) | relative cell number ([2]; 10000 nM) | relative cell number ([3]; 10 nM) | relative cell number ([3]; 100 nM) | relative cell number ([3]; 1000 nM) | relative cell number ([3]; 10000 nM) | relative cell number ([4]; 10 nM) | relative cell number ([4]; 100 nM) | relative cell number ([4]; 1000 nM) | relative cell number ([4]; 10000 nM) | relative cell number ([5]; 10 nM) | relative cell number ([5]; 100 nM) | relative cell number ([5]; 1000 nM) | relative cell number ([5]; 10000 nM) | relative cell number ([1]; 1 nM) | relative cell number ([2]; 1 nM) | relative cell number ([3]; 1 nM) | relative cell number ([4]; 1 nM) | relative cell number ([5]; 1 nM)
CC(C)(C)OC(=O)CN(Cc1ccc(Cl)cc1)Cc1ccc([N+](=O)[O-])s1 [GSK4112] | 73.6 ± 2 | 111 ± 14 | 94 ± 20 | 104 ± 3.4 | 78.9 ± 4.7 | 95.1 ± 11 | 95.8 ± 10 | 96.5 ± 11 | 82.6 ± 9.2 | 96.4 ± 7.3 | 82.9 ± 9.5 | 114 ± 40 | 87.6 ± 3.9 | 89 ± 20 | 66.5 ± 15 | 117 ± 11 | 100 ± 4.8 | 148 ± 35 | 86.4 ± 8.4 | 100 ± 29 |  |  |  |  | 
CCOC(=O)CCNc1cc(N2CCc3ccccc3CC2)nc(-c2ccccn2)n1 [GSKJ4] | 86.2 ± 8 | 105 ± 1.5 | 122 ± 12 | 52.7 ± 5.3 | 103 ± 7.2 | 98.1 ± 1.7 | 96.1 ± 22 | 60.8 ± 9.7 | 98.3 ± 30 | 123 ± 22 | 96.8 ± 44 | 34 ± 7.1 | 94.1 ± 37 | 104 ± 3.1 | 101 ± 9.6 | 88.8 ± 34 | 125 ± 56 | 113 ± 3.1 | 110 ± 7.2 | 33.4 ± 1.8 |  |  |  |  | 
CC(C)c1cc(-c2n[nH]c(=O)n2-c2ccc3c(ccn3C)c2)c(O)cc1O [Ganetespib] | 89.9 ± 2.6 | 44.8 ± 0.61 | 48.5 ± 11 |  | 94.7 ± 2.2 | 26.6 ± 1.2 | 18.5 ± 2.5 |  | 88.7 ± 21 | 13.7 ± 1.3 | 11.4 ± 7.9 |  | 75.4 ± 13 | 24.1 ± 5.2 | 30.5 ± 9.4 |  | 83.6 ± 40 | 18 ± 1.4 | 27.2 ± 3.3 |  | 96.6 ± 15 | 91 ± 2.5 | 88.2 ± 21 | 73.1 ± 28 | 96.883 ± 0.01
COc1cc2ncnc(Nc3ccc(F)c(Cl)c3)c2cc1OCCCN1CCOCC1 [Gefitinib] | 95.4 ± 5.2 | 80.8 ± 9.2 | 86.3 ± 16 | 62.8 ± 13 | 84.4 ± 11 | 105.03 ± 0.0072 | 105 ± 18 | 92.41 ± 0.25 | 83.3 ± 31 | 76.2 ± 23 | 81.2 ± 19 | 108 ± 12 | 78.7 ± 18 | 95.3 ± 31 | 48.5 ± 17 | 36.6 ± 7.8 | 101 ± 13 | 116 ± 49 | 51.61 ± 0.097 | 44.4 ± 13 |  |  |  |  | 
Nc1ccn([C@@H]2O[C@H](CO)[C@@H](O)C2(F)F)c(=O)n1 [Gemcitabine] | 68 ± 3.1 | 34 ± 5.5 | 28.3 ± 5 | 23.9 ± 15 | 20.2 ± 3.4 | 10.5 ± 0.58 | 12.9 ± 3.4 | 11.1 ± 3.8 | 18.5 ± 3.2 | 20.3 ± 7.1 | 15.6 ± 1.6 | 14 ± 3.5 | 26.2 ± 2.4 | 7.58 ± 1.7 | 11.1 ± 5.8 | 14.1 ± 6.9 | 36.6 ± 15 | 26.4 ± 0.51 | 33.9 ± 6 | 30.5 ± 2.7 |  |  |  |  | 

Reference: the supplement of paper PMC7661543
